According to BindingDB's records for doi:10.7270/Q2CN728N (Nmmlsc, 2008):
Counter-ions that a name gives are not always drawn.

target: T1, Bcl-2-related protein A1 (Homo sapiens, UniProt Q16548); experiment: Bfl-1/Bim complex disruptors – biochemical, multiplexed, bead-based flow cytometry, dose response (AID 1320); settings: inactive by the depositor's call; pH 7.4; 4 °C
T1 sequence (Q16548 whole entry): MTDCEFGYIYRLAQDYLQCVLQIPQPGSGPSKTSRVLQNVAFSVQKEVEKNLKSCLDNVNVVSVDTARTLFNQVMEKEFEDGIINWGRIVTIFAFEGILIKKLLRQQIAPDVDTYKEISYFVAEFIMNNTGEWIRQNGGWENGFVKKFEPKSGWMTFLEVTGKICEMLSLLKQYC

| Structure (SMILES) | EC50 |
| --- | --- |
| Cc1nc2ncccn2c1-c1csc(Nc2ccccc2)n1 [4-(2-methyl-3-imidazo[1,2-a]pyrimidinyl)-N-phenyl-2-thiazolamine] | 11.7 µM |
| CNc1ccc(Br)cc(C(=O)/C=C/c2cccc(OC)c2)c1=O [4-bromo-2-[3-(3-methoxyphenyl)acryloyl]-7-(methylamino)-2,4,6-cycloheptatrien-1-one] | 17.5 µM |
| Cc1cc(C)nc(SCc2cc(=O)c(OC(=O)c3ccc(Cl)c([N+](=O)[O-])c3)co2)n1 [4-chloro-3-nitrobenzoic acid [6-[[(4,6-dimethyl-2-pyrimidinyl)thio]methyl]-4-oxo-3-pyranyl] ester] | 19.7 µM |
| COc1cc(/N=c2/ssnc2Cl)cc(OC)c1 [4-chloro-N-(3,5-dimethoxyphenyl)-5-dithiazolimine] | 15 µM |
| CCOC(=O)c1sc(N)c(C(=O)Nc2ccccc2OC)c1C [5-amino-4-[(2-methoxyanilino)-oxomethyl]-3-methyl-2-thiophenecarboxylic acid ethyl ester] | 5.66 µM |
| O=C(N[N-][CH+]c1ccc(-c2ccccc2[N+](=O)[O-])o1)c1cncc(Br)c1 [5-bromo-N-[[5-(2-nitrophenyl)furan-2-yl]methylideneamino]pyridine-3-carboxamide] | 33.6 µM |
| O=C1C(=Cc2ccco2)NC(=S)N1c1ccccc1 [(5E)-5-(furan-2-ylmethylidene)-3-phenyl-2-sulfanylideneimidazolidin-4-one] | 14.8 µM |
| CC(C)CN1C(=O)/C(=C/c2ccco2)NC1=S [(5Z)-5-(2-furanylmethylidene)-3-(2-methylpropyl)-2-sulfanylidene-4-imidazolidinone] | 11 µM |
| Cc1ccc(-c2ccc(/C=C3\SC(N4CCOCC4)=NC3=O)o2)cc1 [(5Z)-5-[[5-(4-methylphenyl)-2-furanyl]methylidene]-2-(4-morpholinyl)-4-thiazolone] | 20 µM |
| COc1cc(C2Nc3cccc4cccc(c34)N2)ccc1OC(C)=O [Acetic acid 4-(2,3-dihydro-1H-perimidin-2-yl)-2-methoxy-phenyl ester] | 11.1 µM |
| COC(=O)CSc1ncnc2c1sc1nc(-c3ccco3)c3c(c12)CC(C)(C)OC3 [MLS000039339] | 12.4 µM |
| C/C(=C\c1ccco1)C1Nc2cccc3cccc(c23)N1 [MLS000055728] | 15.8 µM |
| CCOc1cc(C2Nc3cccc4cccc(c34)N2)ccc1O [MLS000068595] | 37.5 µM |
| COc1ccc(-n2c(NC(=O)c3ccco3)c(C#N)c3nc4ccccc4nc32)cc1 [MLS000079925] | 16.1 µM |
| Cc1cc2n(c1)CCn1c(C)ccc1-2 [MLS000104384] | 12.6 µM |
| Cc1ccc(C)n1-c1ccc(N2CCOCC2)cc1 [MLS000111760] | 11.4 µM |
| Clc1nc(NCc2cccnc2)nc(N2CCOCC2)n1 [MLS000121154] | 30.8 µM |

| Structure (SMILES) | EC50 |
| --- | --- |
| CCOC(=O)C(=Cc1cccc(O)c1)c1nc2sc(C)c(C)c2c(=O)[nH]1 [MLS000393989] | 9.56 µM |
| S=c1[nH]cc(-c2ccccc2)n1-c1ccccc1Cl [MLS000417182] | 2.23 µM |
| CCCCNc1[nH]c(=S)nc2cc(OC)c(OC)cc12 [MLS000520261] | 17.3 µM |
| COc1ccc(C2=Nc3cccc4cccc(c34)N2)cc1 [MLS000551954] | 6.49 µM |
| CCOc1cccc(CNc2ccc(O)cc2)c1OCc1ccccc1Cl [MLS000580486] | 1.61 µM |
| CCCC(=O)OCCNc1cc(Sc2nccn2C)c2nonc2c1[N+](=O)[O-] [MLS000584441] | 18.1 µM |
| Cc1ccc(/C=C2/NC(=O)N(Cc3ccccc3)C2=O)o1 [MLS000698643] | 2.73 µM |
| COc1ccc(/C=C/C(=O)c2cc(Br)ccc(=O)c2O)cc1 [MLS000702099] | 14 µM |
| COc1cccc2c1C(=O)C=C(C)C2=O [MLS000702735] | 28.3 µM |
| COC(=O)CCC(=O)Nc1sc(Cc2ccccc2)c(C)c1C(N)=O [MLS000708819] | 0.97 µM |
| CCOC(=O)c1cc2c(=O)n3ccccc3nc2n(Cc2ccco2)/c1=N/C(=O)c1ccccc1OC [MLS000729830] | 34.5 µM |
| Cc1ccc(/C=C/C(=O)c2ccccc(=O)c2O)cc1C [MLS000756172] | 14.9 µM |
| CC(=O)Nc1ccc(-n2cc(-c3ccccc3)[nH]c2=S)cc1 [MLS001001946] | 0.47 µM |
| CCc1cccc(CC)c1-n1c(-c2cccnc2)n[nH]c1=S [MLS001006773] | 1.09 µM |
| COc1ccccc1-n1c(-c2ccccc2)c[nH]c1=S [MLS001007615] | 0.61 µM |
| O=C(Cn1c2ccccc2c(=O)c2ccccc21)N/N=C/c1ccc(N2CCCC2)c([N+](=O)[O-])c1 [N'-[(1E)-(3-nitro-4-pyrrolidin-1-ylphenyl)methylene]-2-(9-oxoacridin-10(9H)-yl)acetohydrazide] | 41.1 µM |
| O=C(Nc1ccc(N2CCOCC2)cc1)Nc1ccc2nc(-c3ccco3)c(-c3ccco3)nc2c1 [N-(2,3-di-2-furyl-6-quinoxalinyl)-N'-[4-(4-morpholinyl)phenyl]urea] | 19.5 µM |

same assay, conditions: pH 7.4; 4 °C

| Structure (SMILES) | EC50 |
| --- | --- |
| C=CS(=O)(=O)c1sc(Cl)c(N2CCOCC2)c1[N+](=O)[O-] [4-(2-chloranyl-5-ethenylsulfonyl-4-nitro-thiophen-3-yl)morpholine] | 5.46 µM |
| Cc1ccc(-c2c3c([nH]c(=S)c2C#N)CCCC3)o1 [4-(5-methylfuran-2-yl)-2-sulfanylidene-5,6,7,8-tetrahydro-1H-quinoline-3-carbonitrile] | 8.21 µM |
| CCN(CC)c1ccc(Nc2nc(N3CCOCC3)c3ccccc3n2)cc1 [4-N,4-N-diethyl-1-N-(4-morpholin-4-ylquinazolin-2-yl)benzene-1,4-diamine] | 9 µM |
| CCOc1cccc(CNc2ccc(O)cc2)c1OCc1ccc(Cl)cc1 [4-[[2-[(4-chlorophenyl)methoxy]-3-ethoxyphenyl]methylamino]phenol] | 2.8 µM |
| CNc1ccc(Br)cc(C(=O)/C=C/c2cccc(OC)c2OC)c1=O [4-bromanyl-2-[(E)-3-(2,3-dimethoxyphenyl)prop-2-enoyl]-7-(methylamino)cyclohepta-2,4,6-trien-1-one] | 8.38 µM |
| CN(C)c1ccc(C=C2C(=O)NC(=O)NC2=O)cc1[N+](=O)[O-] [5-[[4-(dimethylamino)-3-nitrophenyl]methylidene]-1,3-diazinane-2,4,6-trione] | 4.67 µM |
| Cc1ccc(-c2nc3c(c(=O)[nH]c(=O)n3Cc3ccccc3)n2C)o1 [7-methyl-8-(5-methyl-2-furanyl)-3-(phenylmethyl)purine-2,6-dione] | 1.94 µM |
| COc1cc(/C=C2\CC/C(=C\c3cc(OC)c(O)c(OC)c3)C2=O)cc(OC)c1O [(2E,5E)-2,5-bis[(4-hydroxy-3,5-dimethoxyphenyl)methylidene]cyclopentan-1-one] | 3.9 µM |
| O=C1/C(=C\c2ccc(-c3ccccc3Cl)o2)SC(=S)N1CC1CCCO1 (configuration not stated) [(5E)-5-[[5-(2-chlorophenyl)furan-2-yl]methylidene]-3-(oxolan-2-ylmethyl)-2-sulfanylidene-1,3-thiazolidin-4-one] | 2.6 µM |
| Fc1ccc(C=C2CCCC3C2=NC(=S)NC3c2ccc(F)cc2)cc1 (configuration not stated) [(8E)-4-(4-fluorophenyl)-8-[(4-fluorophenyl)methylidene]-1,3,4,5,6,7-hexahydroquinazoline-2-thione] | 6.65 µM |
| CN1CCc2cccc3c2[C@H]1Cc1ccc(O)c(O)c1-3 [APOMORPHINE HYDROCHLORIDE] | 46.4 µM |
| Cc1ccc(-c2cc(-c3ccc(F)cc3)nc(N)c2C#N)o1 [MLS000082831] | 2.44 µM |
| CCOC(=O)C1CCN(C(=O)Nc2ccc3nc(-c4ccco4)c(-c4ccco4)nc3c2)CC1 [MLS000113285] | 1.18 µM |
| Clc1ccc2c(N=NCc3ccccc3Br)ccnc2c1 [MLS000336087] | 12.2 µM |
| O=[N+]([O-])c1ccc(N=NCc2ccc(O)c(O)c2O)c(S(=O)(=O)N2CCOCC2)c1 [MLS000336720] | 4.48 µM |
| O=[N+]([O-])c1ccc(N2CCN(c3ccc(O)cc3)CC2)c(Cl)c1 [MLS000374649] | 1.77 µM |
| Cc1ccc(NC2=C(NC(=O)c3ccccc3)C(=O)c3ccccc3C2=O)cc1Cl [MLS000392290] | 2.31 µM |

| Structure (SMILES) | EC50 |
| --- | --- |
| O=[N+]([O-])c1c(NCCO)cc(Sc2nc3ccccc3s2)c2nonc12 [MLS000520993] | 0.12 µM |
| O=[N+]([O-])c1c(NCCCO)cc(Sc2nc3ccccc3s2)c2nonc12 [MLS000520994] | 0.61 µM |
| CN(CCO)c1cc(Sc2nc3ccccc3s2)c2nonc2c1[N+](=O)[O-] [MLS000520995] | 1.48 µM |
| CC(=O)OCCCNc1cc(Sc2nc3ccccc3s2)c2nonc2c1[N+](=O)[O-] [MLS000521052] | 0.08 µM |
| O=C1C=CC(C=NNC(=O)C(=Cc2ccc([N+](=O)[O-])cc2)NC(=O)c2ccccc2)C(O)=C1O (configuration not stated) [MLS000530401] | 5.22 µM |
| COc1ccc2c3c(cccc13)N(C)N=C2C [MLS000554700] | 0.61 µM |
| Cc1ccc(/C=C/C(=O)Nc2ccc([N+](=O)[O-])c(NC(=O)/C=C/c3ccc(C)o3)c2)o1 [MLS000578867] | 0.83 µM |
| Cc1ccc(-c2cc(C(=O)Nc3nccs3)c3ccccc3n2)o1 [MLS000579660] | 9.21 µM |
| Cc1nnc(Sc2cc(NCCCO)c([N+](=O)[O-])c3nonc23)s1 [MLS000674027] | 0.13 µM |
| Fc1ccc(C2=Nc3cccc4cccc(c34)N2)cc1 [MLS000687139] | 7.63 µM |
| CCN(C(=O)COC(=O)c1cc(-c2ccc(C)o2)nc2ccccc12)C1CCS(=O)(=O)C1 (configuration not stated) [MLS001003409] | 3.38 µM |
| CC1=CC(=O)c2c(O)ccc(O)c2C1=O [MLS001048870] | 2.87 µM |
| c1ccc(Nc2cccc(Nc3ccccc3)n2)cc1 [N,N'-diphenyl-2,6-pyridinediamine] | 1.17 µM |
| CC(=O)c1ccc(NC(=O)c2ccc3nc(-c4ccco4)c(-c4ccco4)nc3c2)cc1 [N-(4-acetylphenyl)-2,3-di-2-furyl-6-quinoxalinecarboxamide] | 2.34 µM |
| Clc1nss/c1=N\c1ccc(Br)cc1 [N-(4-bromophenyl)-4-chloro-5-dithiazolimine] | 9.18 µM |
| COc1ccc(CCNC(=O)c2ccc3nc(-c4ccco4)c(-c4ccco4)nc3c2)cc1OC [N-[2-(3,4-dimethoxyphenyl)ethyl]-2,3-di-2-furylquinoxaline-6-carboxamide] | 4.3 µM |
